From patent publication US8450313B2, “2,3-diaryl- or heteroaryl-substituted 1,1,1-trifluoro-2-hydroxypropyl compounds” (Hoffmann-La Roche Inc., priority 2009, dated 2013)

What follows are molecules tested against T1, full length human recombinant glucocorticoid receptor (Homo sapiens, UniProt P04150) (assay: Glucocorticoid Receptor Binding Assay (Glucocorticoid Receptor Competitor Assay far red kit, fluorescence polarization)). Conditions: competition with fluorescent GR ligand Fluormone GS Far Red, 3 hours at 22° C., pH 7.4; Ki calculated from IC50 by Cheng-Prusoff.
T1 construct: It contains some partially purified full length human recombinant glucocorticoid receptor; purchased Panvera/Invitrogen PV4302
T1 sequence (P04150 1-777): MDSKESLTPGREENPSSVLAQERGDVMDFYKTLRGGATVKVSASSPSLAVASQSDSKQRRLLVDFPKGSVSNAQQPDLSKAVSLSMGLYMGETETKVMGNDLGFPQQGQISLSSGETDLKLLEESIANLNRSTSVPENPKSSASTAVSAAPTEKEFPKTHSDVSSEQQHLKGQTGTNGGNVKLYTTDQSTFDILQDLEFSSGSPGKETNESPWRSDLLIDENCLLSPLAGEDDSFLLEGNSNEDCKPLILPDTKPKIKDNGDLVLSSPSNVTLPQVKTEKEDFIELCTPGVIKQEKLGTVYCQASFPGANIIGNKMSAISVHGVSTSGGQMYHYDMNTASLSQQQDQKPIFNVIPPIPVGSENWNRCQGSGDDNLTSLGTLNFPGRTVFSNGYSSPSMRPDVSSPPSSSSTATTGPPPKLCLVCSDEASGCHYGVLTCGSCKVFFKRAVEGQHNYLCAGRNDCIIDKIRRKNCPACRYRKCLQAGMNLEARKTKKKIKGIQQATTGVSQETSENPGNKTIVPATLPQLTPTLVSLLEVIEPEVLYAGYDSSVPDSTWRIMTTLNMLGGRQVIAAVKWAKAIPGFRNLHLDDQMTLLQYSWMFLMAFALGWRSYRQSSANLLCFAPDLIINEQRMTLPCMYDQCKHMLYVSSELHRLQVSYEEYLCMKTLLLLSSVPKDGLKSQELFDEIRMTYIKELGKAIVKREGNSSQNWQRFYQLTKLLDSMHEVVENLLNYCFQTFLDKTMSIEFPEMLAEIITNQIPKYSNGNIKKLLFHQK
Summary of the method: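 Fluorescence polarization competition with partially purified full-length human recombinant GR, stabilizing peptide and Fluormone GS Far Red tracer in screening buffer pH 7.4; 3 hours at 22° C in the dark, read at 610–660 nm. IC50 from sigmoidal fit; Ki by Cheng-Prusoff.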

Ki [nM] | Compound
3.1 | C[C@H](c1ccc(Oc2ccc(F)c(C(=O)O)c2)cc1Cl)[C@@](O)(c1ccc2c(c1)OCC(=O)N2C)C(F)(F)F (relative stereo) [Example 167, 5-{3-Chloro-4-[3,3,3-trifluoro-2-hydroxy-1-methyl-2-(4-methyl-3-oxo-3,4-dihydro-2H-benzo[1,4]oxazin-7-yl)-propyl]phenoxy}-2-fluoro-benzoic acid]
609 | C[C@H](c1ccc(-c2ccc(C(=O)O)c(F)c2)cc1Cl)[C@@](O)(c1ccc2c(c1)N(C)C(=O)C(C)(C)O2)C(F)(F)F (relative stereo) [Example 168, 3′-Chloro-3-fluoro-4′-[3,3,3-trifluoro-2-hydroxy-1-methyl-2-(2,2,4-trimethyl-3-oxo-3,4-dihydro-2H-benzo[1,4]oxazin-6-yl)-propyl]-biphenyl-4-carboxylic acid]
28.2 | C[C@H](c1ccc(Oc2ccc(C(=O)O)cn2)cc1Cl)[C@@](O)(c1ccc2c(c1)OCC(=O)N2C)C(F)(F)F (relative stereo) [Example 169, 6-{3-Chloro-4-[3,3,3-trifluoro-2-hydroxy-1-methyl-2-(4-methyl-3-oxo-3,4-dihydro-2H-benzo[1,4]oxazin-7-yl)-propyl]-phenoxy}-nicotinic acid]
0.6 | C[C@H](c1ccc(O)cc1Cl)[C@@](O)(c1ccc2oc(=O)n(C)c2c1)C(F)(F)F (relative stereo) [Example 172, 5-[2-(2-Chloro-4-hydroxy-phenyl)-1-hydroxy-1-trifluoromethyl-propyl]-3-methyl-3H-benzooxazol-2-one]
1.1 | C[C@H](c1ccc(Oc2ccc(C(=O)O)c(Cl)c2)cc1Cl)[C@@](O)(c1ccc2oc(=O)n(C)c2c1)C(F)(F)F (relative stereo) [Example 173, 2-Chloro-4-{3-chloro-4-[3,3,3-trifluoro-2-hydroxy-1-methyl-2-(3-methyl-2-oxo-2,3-dihydro-benzooxazol-5-yl)-propyl]-phenoxy}-benzoic acid]
2 | COC(=O)c1ccc(Oc2ccc([C@@H](C)[C@@](O)(c3ccc4oc(=O)n(C)c4c3)C(F)(F)F)c(Cl)c2)nc1 (relative stereo) [Example 174, 6-{3-Chloro-4-[3,3,3-trifluoro-2-hydroxy-1-methyl-2-(3-methyl-2-oxo-2,3-dihydro-benzooxazol-5-yl)-propyl]-phenoxy}-nicotinic acid methyl ester]
1.8 | COC(=O)c1cnc(Oc2ccc([C@@H](C)[C@@](O)(c3ccc4oc(=O)n(C)c4c3)C(F)(F)F)c(Cl)c2)c(Cl)c1 (relative stereo) [Example 175, 5-Chloro-6-{3-chloro-4-[3,3,3-trifluoro-2-hydroxy-1-methyl-2-(3-methyl-2-oxo-2,3-dihydro-benzooxazol-5-yl)-propyl]-phenoxy}-nicotinic acid methyl ester]
1.7 | COC(=O)c1ccc(Oc2ccc([C@@H](C)[C@@](O)(c3ccc4oc(=O)n(C)c4c3)C(F)(F)F)c(Cl)c2)cc1F (relative stereo) [Example 176, 4-{3-Chloro-4-[3,3,3-trifluoro-2-hydroxy-1-methyl-2-(3-methyl-2-oxo-2,3-dihydro-benzooxazol-5-yl)-propyl]-phenoxy}-2-fluoro-benzoic acid methyl ester]
114 | C[C@H](c1ccc(-c2ccc(F)c(C(=O)O)c2)cc1Cl)[C@@](O)(c1ccc2c(c1)oc(=O)n2C)C(F)(F)F (relative stereo) [Example 178, 3′-Chloro-4-fluoro-4′-[3,3,3-trifluoro-2-hydroxy-1-methyl-2-(3-methyl-2-oxo-2,3-dihydro-benzooxazol-6-yl)-propyl]-biphenyl-3-carboxylic acid]
3 | COC(=O)c1cnc(Oc2ccc([C@@H](C)[C@@](O)(c3ccc4oc(=O)n(C)c4c3)C(F)(F)F)c(Cl)c2)cc1Cl (relative stereo) [Example 183, 4-Chloro-6-{3-chloro-4-[3,3,3-trifluoro-2-hydroxy-1-methyl-2-(3-methyl-2-oxo-2,3-dihydro-benzooxazol-5-yl)-propyl]-phenoxy}-nicotinic acid methyl ester]
0.8 | C[C@H](c1ccc(Oc2ccc(C(=O)O)c(Cl)n2)cc1Cl)[C@@](O)(c1ccc2oc(=O)n(C)c2c1)C(F)(F)F (relative stereo) [Example 184, 2-Chloro-6-{3-chloro-4-[3,3,3-trifluoro-2-hydroxy-1-methyl-2-(3-methyl-2-oxo-2,3-dihydro-benzooxazol-5-yl)-propyl]-phenoxy}-nicotinic acid]
0.7 | C[C@H](c1ccc(Oc2cc(Cl)c(C(=O)O)cn2)cc1Cl)[C@@](O)(c1ccc2oc(=O)n(C)c2c1)C(F)(F)F (relative stereo) [Example 185, 4-Chloro-6-{3-chloro-4-[3,3,3-trifluoro-2-hydroxy-1-methyl-2-(3-methyl-2-oxo-2,3-dihydro-benzooxazol-5-yl)-propyl]-phenoxy}-nicotinic acid]
1.4 | COC(=O)c1cncc(-c2ccc([C@@H](C)[C@@](O)(c3ccc4oc(=O)n(C)c4c3)C(F)(F)F)c(Cl)c2)c1 (relative stereo) [Example 186, 5-{3-Chloro-4-[3,3,3-trifluoro-2-hydroxy-1-methyl-2-(3-methyl-2-oxo-2,3-dihydro-benzooxazol-5-yl)-propyl]-phenyl}-nicotinic acid methyl ester]
2.1 | COC(=O)c1ccc(-c2ccc([C@@H](C)[C@@](O)(c3ccc4oc(=O)n(C)c4c3)C(F)(F)F)c(Cl)c2)cn1 (relative stereo) [Example 187, 5-{3-Chloro-4-[3,3,3-trifluoro-2-hydroxy-1-methyl-2-(3-methyl-2-oxo-2,3-dihydro-benzooxazol-5-yl)-propyl]-phenyl}-pyridine-2-carboxylic acid methyl ester]
2.2 | CCOC(=O)c1cccc(-c2ccc([C@@H](C)[C@@](O)(c3ccc4oc(=O)n(C)c4c3)C(F)(F)F)c(Cl)c2)n1 (relative stereo) [Example 188, 6-{3-Chloro-4-[3,3,3-trifluoro-2-hydroxy-1-methyl-2-(3-methyl-2-oxo-2,3-dihydro-benzooxazol-5-yl)-propyl]-phenyl}-pyridine-2-carboxylic acid ethyl ester]
6.6 | C[C@H](c1ccc(-c2ccc(C(=O)O)nc2)cc1Cl)[C@@](O)(c1ccc2oc(=O)n(C)c2c1)C(F)(F)F (relative stereo) [Example 189, 5-{3-Chloro-4-[3,3,3-trifluoro-2-hydroxy-1-methyl-2-(3-methyl-2-oxo-2,3-dihydro-benzooxazol-5-yl)-propyl]-phenyl}-pyridine-2-carboxylic acid]
3 | C[C@H](c1ccc(-c2cccc(C(=O)O)n2)cc1Cl)[C@@](O)(c1ccc2oc(=O)n(C)c2c1)C(F)(F)F (relative stereo) [Example 190, 6-{3-Chloro-4-[3,3,3-trifluoro-2-hydroxy-1-methyl-2-(3-methyl-2-oxo-2,3-dihydro-benzooxazol-5-yl)-propyl]-phenyl}-pyridine-2-carboxylic acid]
1.4 | C[C@H](c1ccc(-c2cncc(C(=O)O)c2)cc1Cl)[C@@](O)(c1ccc2oc(=O)n(C)c2c1)C(F)(F)F (relative stereo) [Example 191, 5-{3-Chloro-4-[3,3,3-trifluoro-2-hydroxy-1-methyl-2-(3-methyl-2-oxo-2,3-dihydro-benzooxazol-5-yl)-propyl]-phenyl}-nicotinic acid]
